Results published in ChEMBL document CHEMBL1821574, “Structure-activity relationships of 4-position diamine quinoline methanols as intermittent preventative treatment (IPT) against Plasmodium falciparum” (J Med Chem, 2011).
In brackets after ≈: the same amount, converted by molar mass.

Tests used:
Assay type in all cases: functional
Plasmodium berghei [1] = assay: Antimalarial activity against Plasmodium berghei infected in mouse assessed as host survival at 5 mg/kg, po administered as single dose
Plasmodium berghei [2] = assay: Antimalarial activity against Plasmodium berghei infected in mouse assessed as host survival at 10 mg/kg, po administered as single dose
Plasmodium berghei [3] = assay: Antimalarial activity against Plasmodium berghei infected in mouse assessed as host survival at 20 mg/kg, po administered as single dose
Plasmodium berghei [4] = assay: Antimalarial activity against Plasmodium berghei infected in mouse assessed as host survival at 40 mg/kg, po administered as single dose
Plasmodium berghei [5] = assay: Antimalarial activity against Plasmodium berghei infected in mouse assessed as host survival at 80 mg/kg, po administered as single dose
Plasmodium berghei [6] = assay: Antimalarial activity against Plasmodium berghei infected in mouse assessed as host survival at 160 mg/kg, po administered as single dose
Plasmodium berghei [7] = assay: Antimalarial activity against Plasmodium berghei infected in mouse assessed as host survival at 320 mg/kg, po administered as single dose
Plasmodium berghei [8] = assay: Antimalarial activity against Plasmodium berghei infected in mouse assessed as host survival at 5 mg/kg, po administered as single dose measured on day 31; conditions: 744 h
Plasmodium berghei [9] = assay: Antimalarial activity against Plasmodium berghei infected in mouse assessed as host survival at 10 mg/kg, po administered as single dose measured on day 31; conditions: 744 h
Plasmodium berghei [10] = assay: Antimalarial activity against Plasmodium berghei infected in mouse assessed as host survival at 20 mg/kg, po administered as single dose measured on day 31; conditions: 744 h
Plasmodium berghei [11] = assay: Antimalarial activity against Plasmodium berghei infected in mouse assessed as host survival at 40 mg/kg, po administered as single dose measured on day 31; conditions: 744 h
Plasmodium berghei [12] = assay: Antimalarial activity against Plasmodium berghei infected in mouse assessed as host survival at 80 mg/kg, po administered as single dose measured on day 31; conditions: 744 h
Plasmodium berghei [13] = assay: Antimalarial activity against Plasmodium berghei infected in mouse assessed as host survival at 160 mg/kg, po administered as single dose measured on day 31; conditions: 744 h
Plasmodium berghei [14] = assay: Antimalarial activity against Plasmodium berghei infected in mouse assessed as host survival at 320 mg/kg, po administered as single dose measured on day 31; conditions: 744 h
Plasmodium berghei [15] = assay: Antimalarial activity against Plasmodium berghei infected in mouse assessed as complete cure at 5 mg/kg, po administered as single dose measured on day 31
Plasmodium berghei [16] = assay: Antimalarial activity against Plasmodium berghei infected in mouse assessed as complete cure at 10 mg/kg, po administered as single dose measured on day 31
Plasmodium berghei [17] = assay: Antimalarial activity against Plasmodium berghei infected in mouse assessed as complete cure at 20 mg/kg, po administered as single dose measured on day 31
Plasmodium berghei [18] = assay: Antimalarial activity against Plasmodium berghei infected in mouse assessed as complete cure at 40 mg/kg, po administered as single dose measured on day 31
Plasmodium berghei [19] = assay: Antimalarial activity against Plasmodium berghei infected in mouse assessed as complete cure at 80 mg/kg, po administered as single dose measured on day 31
Plasmodium berghei [20] = assay: Antimalarial activity against Plasmodium berghei infected in mouse assessed as complete cure at 160 mg/kg, po administered as single dose measured on day 31
Plasmodium berghei [21] = assay: Antimalarial activity against Plasmodium berghei infected in mouse assessed as complete cure at 320 mg/kg, po administered as single dose measured on day 31
Plasmodium falciparum [22] = assay: Antimalarial activity against chloroquine-resistant and mefloquine-sensitive Plasmodium falciparum W2
Plasmodium falciparum [23] = assay: Antimalarial activity against mefloquine-resistant and chloroquine-sensitive Plasmodium falciparum D6
Plasmodium falciparum [24] = assay: Antimalarial activity against chloroquine, mefloquine and pyrimethamine-resistant Plasmodium falciparum TM91C235
Plasmodium falciparum [25] = assay: Antimalarial activity against chloroquine, mefloquine and pyrimethamine-resistant Plasmodium falciparum TM90C2A
Plasmodium falciparum [26] = assay: Antimalarial activity against chloroquine-resistant and mefloquine-sensitive Plasmodium falciparum W2 assessed as inhibition of [3H]hypoxanthine incorporation by liquid scintillation spectrometry
Plasmodium falciparum [27] = assay: Antimalarial activity against chloroquine-sensitive and mefloquine-resistant Plasmodium falciparum D6 assessed as inhibition of [3H]hypoxanthine incorporation by liquid scintillation spectrometry
Plasmodium falciparum [28] = assay: Antimalarial activity against chloroquine, mefloquine and pyrimethamine-resistant Plasmodium falciparum TM91C235 assessed as inhibition of [3H]hypoxanthine incorporation by liquid scintillation spectrometry
Plasmodium falciparum [29] = assay: Antimalarial activity against chloroquine-sensitive and mefloquine-resistant Plasmodium falciparum D6 by SYBR Green I-based fluorescence assay
Plasmodium falciparum [30] = assay: Antimalarial activity against chloroquine, mefloquine and pyrimethamine-resistant Plasmodium falciparum TM91C235 by SYBR Green I-based fluorescence assay

O[C@H](CNCCNC1CC1)c1cc(C(F)(F)F)nc2c(C(F)(F)F)cccc12
MST (Plasmodium berghei [1]): 6.6 days | MST (Plasmodium berghei [2]): 6.6 days | MST (Plasmodium berghei [3]): 6.8 days | MST (Plasmodium berghei [4]): 10 days | MST (Plasmodium berghei [5]): 16 days | MST (Plasmodium berghei [6]): 19 days | MST (Plasmodium berghei [7]): 30 days | survival at 5 mg/kg (Plasmodium berghei [8]): 0% | survival at 10 mg/kg (Plasmodium berghei [9]): 0% | survival at 20 mg/kg (Plasmodium berghei [10]): 0% | survival at 40 mg/kg (Plasmodium berghei [11]): 0% | survival at 80 mg/kg (Plasmodium berghei [12]): 0% | survival at 160 mg/kg (Plasmodium berghei [13]): 0% | survival at 320 mg/kg (Plasmodium berghei [14]): 100% | Activity (Plasmodium berghei [15]): 0% | Activity (Plasmodium berghei [16]): 0% | Activity (Plasmodium berghei [17]): 0% | Activity (Plasmodium berghei [18]): 0% | Activity (Plasmodium berghei [19]): 0% | Activity (Plasmodium berghei [20]): 0% | Activity (Plasmodium berghei [21]): 80% | IC90 (Plasmodium falciparum [22]): 11 ng/mL (≈ 0.027 µM) | IC90 (Plasmodium falciparum [23]): 0.027 µg/mL (≈ 0.0663 µM) | IC90 (Plasmodium falciparum [24]): 0.077 µg/mL (≈ 0.189 µM) | IC90 (Plasmodium falciparum [25]): 0.073 µg/mL (≈ 0.179 µM)

OC(c1cc(C(F)(F)F)nc2c(C(F)(F)F)cccc12)C1CCCCN1 (centres undefined) [MEFLOQUINE]
IC90 (Plasmodium falciparum [26]): 6.7 ng/mL (≈ 0.0177 µM) | IC90 (Plasmodium falciparum [27]): 0.016 µg/mL (≈ 0.0423 µM) | IC90 (Plasmodium falciparum [28]): 0.053 µg/mL (≈ 0.14 µM) | IC90 (Plasmodium falciparum [29]): 0.015 µg/mL (≈ 0.0396 µM) | IC90 (Plasmodium falciparum [30]): 0.042 µg/mL (≈ 0.111 µM) | MST (Plasmodium berghei [1]): 17 days | MST (Plasmodium berghei [2]): 15 days | MST (Plasmodium berghei [3]): 22 days | MST (Plasmodium berghei [4]): 26 days | MST (Plasmodium berghei [5]): 28 days | MST (Plasmodium berghei [6]): 27 days | MST (Plasmodium berghei [7]): 24 days | survival at 5 mg/kg (Plasmodium berghei [8]): 20% | survival at 10 mg/kg (Plasmodium berghei [9]): 0% | survival at 20 mg/kg (Plasmodium berghei [10]): 30% | survival at 40 mg/kg (Plasmodium berghei [11]): 56% | survival at 80 mg/kg (Plasmodium berghei [12]): 70% | survival at 160 mg/kg (Plasmodium berghei [13]): 50% | survival at 320 mg/kg (Plasmodium berghei [14]): 60% | Activity (Plasmodium berghei [15]): 20% | Activity (Plasmodium berghei [16]): 0% | Activity (Plasmodium berghei [17]): 10% | Activity (Plasmodium berghei [18]): 36% | Activity (Plasmodium berghei [19]): 30% | Activity (Plasmodium berghei [20]): 20% | Activity (Plasmodium berghei [21]): 50% | IC90 (Plasmodium falciparum [22]): 6.7 ng/mL (≈ 0.0177 µM) | IC90 (Plasmodium falciparum [23]): 0.016 µg/mL (≈ 0.0423 µM) | IC90 (Plasmodium falciparum [24]): 0.053 µg/mL (≈ 0.14 µM)
